Data set [1] is described as follows: Dissociation constant, pKa at physiological pH. The data set is classed as physicochemical.
The nature of data set [2]: Partition coefficient, log P of the compound. The data set is classed as physicochemical. The settings on record: octanol/water.
Data set [3] deals with A-431. Kind of data set: Cytostatic activity against human A431 cells. The data set is classed as functional, cell-based.
Data set [4] in a line: Solubility in water. The settings on record: buffer. The class given is physicochemical.
Data set [5] is described as follows: Cytostatic activity against human HT29-AK cells. The data set is classed as functional.
Another data set concerns HT29-AK. Kind of data set: Cytotoxic activity against human HT29-AK cells assessed as cell survival at 5 uM. The data set is classed as functional, cell-based.
The subject of data set [6] is A-431. Kind of data set: Cytotoxic activity against human A431 cells assessed as cell survival at 5 uM. The class given is functional. The settings on record: read-out: Activity.

Active and inactive are the calls of the source. The rule behind the calls is not given here.

The compound `Clc1ccc2c(c1)Nc1cccc3ccnc-2c13` had a pKa in data set [1] of 4.5. The compound also returned a log partition coefficient (logP) in data set [2] of 3.69.

Compound `CCOc1ccc2c3c(nccc13)-c1ccc(N)cc1N2` came in with a pKa in data set [1] of 5.3. The compound further returned a half-maximal inhibitory concentration (IC50) in the data set with A-431 [3] of 2100 nM. Besides, the solubility result in data set [4] is “Soluble”. In addition, the log partition coefficient (logP) in data set [2] turned out to be 2.62. Also, in data set [5], the IC60 was 1350 nM.

On to `CCOc1ccc2c3c(nccc13)-c1ccc3nc4c5cccnc5c5ncccc5c4nc3c1N2`, for which, in the data set on HT29-AK, the outcome was inactive. Moreover, the viability at 5 µM in the data set with A-431 [6] is 85%.

The term pKa denotes the pH at which an ionisable group is half protonated. A lower pKa goes with a stronger acid or weaker base. Usually logP stands for the decadic logarithm of the partition coefficient of the neutral form, usually between octanol and water. A lower logP goes with lower lipophilicity. In general, IC50 refers to the concentration needed to halve the response being measured. A lower IC50 goes with greater potency in that assay.

(Values after ChEMBL document CHEMBL1154017, “Functionalization of the A ring of pyridoacridine as a route toward greater structural diversity. Synthesis of an octacyclic analogue of eilatin” (Bioorg Med Chem Lett, 2009).)
